{"source": "ChEMBL document CHEMBL1201862", "about": "“PubChem BioAssay data set” (2004)", "assay_in_all_cases": "inhibition of tumour cell growth, NCI panel, 48 h", "key": {"[1]": {"tested_on": "MOLT-4"}, "[2]": {"tested_on": "SF-539"}, "[3]": {"tested_on": "TK-10"}, "[4]": {"tested_on": "A549"}, "[5]": {"tested_on": "HOP-92"}, "[6]": {"tested_on": "SNB-75"}, "[7]": {"tested_on": "M14"}, "[8]": {"tested_on": "SK-MEL-28"}, "[9]": {"tested_on": "NCI-H23"}, "[10]": {"tested_on": "SN12C"}, "[11]": {"tested_on": "HT-29"}, "[12]": {"tested_on": "SNB-19"}, "[13]": {"tested_on": "KM12"}, "[14]": {"tested_on": "SW-620"}, "[15]": {"tested_on": "IGROV-1"}, "[16]": {"tested_on": "OVCAR-8"}, "[17]": {"tested_on": "SR"}}, "note": "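In this assay, cells in 96-well plates receive the compound at five concentrations for 48 hours. Endpoints are linearly interpolated between the surrounding concentrations. At the GI50, growth is halved.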 Active and inactive are the calls of the source. Cut-off read from the data, not from the text of the source: active = GI50 up to about 1.1 µM and inactive = higher."}
{"smiles": "Cc1ccc(C(=O)/C=C/c2ccccc2O)c(C)c1", "values": [{"measurement": "GI50", "setting": "[1]", "result": "94.8 µM (inactive)"}, {"measurement": "GI50", "setting": "[2]", "result": "> 100 µM (inactive)"}, {"measurement": "GI50", "setting": "[3]", "result": "> 100 µM (inactive)"}, {"measurement": "GI50", "setting": "[4]", "result": "> 100 µM (inactive)"}, {"measurement": "GI50", "setting": "[5]", "result": "> 100 µM (inactive)"}, {"measurement": "GI50", "setting": "[6]", "result": "1.24 µM (inactive)"}, {"measurement": "GI50", "setting": "[7]", "result": "> 100 µM (inactive)"}, {"measurement": "GI50", "setting": "[8]", "result": "> 100 µM (inactive)"}, {"measurement": "GI50", "setting": "[9]", "result": "> 100 µM (inactive)"}, {"measurement": "GI50", "setting": "[10]", "result": "> 100 µM (inactive)"}, {"measurement": "GI50", "setting": "[11]", "result": "0.8 µM (active)"}, {"measurement": "GI50", "setting": "[12]", "result": "> 100 µM (inactive)"}, {"measurement": "GI50", "setting": "[13]", "result": "> 100 µM (inactive)"}, {"measurement": "GI50", "setting": "[14]", "result": "> 100 µM (inactive)"}, {"measurement": "GI50", "setting": "[15]", "result": "> 100 µM (inactive)"}, {"measurement": "GI50", "setting": "[16]", "result": "> 100 µM (inactive)"}]}
{"smiles": "O=C(CCn1[nH]c(=O)c(Cl)c(Cl)c1=O)NO", "values": [{"measurement": "GI50", "setting": "[1]", "result": "> 100 µM (inactive)"}, {"measurement": "GI50", "setting": "[2]", "result": "> 100 µM (inactive)"}, {"measurement": "GI50", "setting": "[3]", "result": "> 100 µM (inactive)"}, {"measurement": "GI50", "setting": "[4]", "result": "> 100 µM (inactive)"}, {"measurement": "GI50", "setting": "[6]", "result": "> 100 µM (inactive)"}, {"measurement": "GI50", "setting": "[7]", "result": "> 100 µM (inactive)"}, {"measurement": "GI50", "setting": "[8]", "result": "> 100 µM (inactive)"}, {"measurement": "GI50", "setting": "[9]", "result": "> 100 µM (inactive)"}, {"measurement": "GI50", "setting": "[10]", "result": "> 100 µM (inactive)"}, {"measurement": "GI50", "setting": "[11]", "result": "> 100 µM (inactive)"}, {"measurement": "GI50", "setting": "[12]", "result": "> 100 µM (inactive)"}, {"measurement": "GI50", "setting": "[13]", "result": "> 100 µM (inactive)"}, {"measurement": "GI50", "setting": "[14]", "result": "> 100 µM (inactive)"}, {"measurement": "GI50", "setting": "[15]", "result": "> 100 µM (inactive)"}, {"measurement": "GI50", "setting": "[16]", "result": "> 100 µM (inactive)"}]}
{"smiles": "O=C1Nc2ccccc2C1(O)C/C(=N/O)c1ccc2ccccc2c1", "note": "(stereo unspecified)", "values": [{"measurement": "GI50", "setting": "[1]", "result": "64.9 µM (inactive)"}, {"measurement": "GI50", "setting": "[2]", "result": "> 100 µM (inactive)"}, {"measurement": "GI50", "setting": "[3]", "result": "> 100 µM (inactive)"}, {"measurement": "GI50", "setting": "[4]", "result": "> 100 µM (inactive)"}, {"measurement": "GI50", "setting": "[6]", "result": "28.6 µM (inactive)"}, {"measurement": "GI50", "setting": "[7]", "result": "> 100 µM (inactive)"}, {"measurement": "GI50", "setting": "[8]", "result": "> 100 µM (inactive)"}, {"measurement": "GI50", "setting": "[9]", "result": "71.9 µM (inactive)"}, {"measurement": "GI50", "setting": "[10]", "result": "> 100 µM (inactive)"}, {"measurement": "GI50", "setting": "[11]", "result": "> 100 µM (inactive)"}, {"measurement": "GI50", "setting": "[12]", "result": "> 100 µM (inactive)"}, {"measurement": "GI50", "setting": "[13]", "result": "> 100 µM (inactive)"}, {"measurement": "GI50", "setting": "[14]", "result": "> 100 µM (inactive)"}, {"measurement": "GI50", "setting": "[16]", "result": "> 100 µM (inactive)"}]}
{"smiles": "COc1cccc(SSc2cccc(OC)c2C(=O)O)c1C(=O)O", "values": [{"measurement": "GI50", "setting": "[1]", "result": "> 100 µM (inactive)"}, {"measurement": "GI50", "setting": "[2]", "result": "> 100 µM (inactive)"}, {"measurement": "GI50", "setting": "[3]", "result": "> 100 µM (inactive)"}, {"measurement": "GI50", "setting": "[4]", "result": "> 100 µM (inactive)"}, {"measurement": "GI50", "setting": "[5]", "result": "> 100 µM (inactive)"}, {"measurement": "GI50", "setting": "[6]", "result": "> 100 µM (inactive)"}, {"measurement": "GI50", "setting": "[7]", "result": "> 100 µM (inactive)"}, {"measurement": "GI50", "setting": "[8]", "result": "> 100 µM (inactive)"}, {"measurement": "GI50", "setting": "[9]", "result": "> 100 µM (inactive)"}, {"measurement": "GI50", "setting": "[10]", "result": "> 100 µM (inactive)"}, {"measurement": "GI50", "setting": "[11]", "result": "> 100 µM (inactive)"}, {"measurement": "GI50", "setting": "[13]", "result": "> 100 µM (inactive)"}, {"measurement": "GI50", "setting": "[14]", "result": "> 100 µM (inactive)"}, {"measurement": "GI50", "setting": "[17]", "result": "> 100 µM (inactive)"}, {"measurement": "GI50", "setting": "[15]", "result": "> 100 µM (inactive)"}, {"measurement": "GI50", "setting": "[16]", "result": "> 100 µM (inactive)"}]}
{"smiles": "COc1ccccc1N1C(=O)/C(=C/c2ccc(N(CCC#N)CCC#N)cc2C)N=C1c1cc([N+](=O)[O-])ccc1Cl", "values": [{"measurement": "GI50", "setting": "[1]", "result": "> 100 µM (inactive)"}, {"measurement": "GI50", "setting": "[2]", "result": "> 100 µM (inactive)"}, {"measurement": "GI50", "setting": "[3]", "result": "> 100 µM (inactive)"}, {"measurement": "GI50", "setting": "[4]", "result": "> 100 µM (inactive)"}, {"measurement": "GI50", "setting": "[6]", "result": "> 100 µM (inactive)"}, {"measurement": "GI50", "setting": "[7]", "result": "68.2 µM (inactive)"}, {"measurement": "GI50", "setting": "[8]", "result": "> 100 µM (inactive)"}, {"measurement": "GI50", "setting": "[9]", "result": "> 100 µM (inactive)"}, {"measurement": "GI50", "setting": "[10]", "result": "> 100 µM (inactive)"}, {"measurement": "GI50", "setting": "[11]", "result": "> 100 µM (inactive)"}, {"measurement": "GI50", "setting": "[12]", "result": "> 100 µM (inactive)"}, {"measurement": "GI50", "setting": "[13]", "result": "> 100 µM (inactive)"}, {"measurement": "GI50", "setting": "[17]", "result": "> 100 µM (inactive)"}, {"measurement": "GI50", "setting": "[15]", "result": "> 100 µM (inactive)"}, {"measurement": "GI50", "setting": "[16]", "result": "> 100 µM (inactive)"}]}
{"smiles": "CCc1cc(CCC(=O)Nc2ccccc2[N+](=O)[O-])nc(S)n1", "values": [{"measurement": "GI50", "setting": "[1]", "result": "> 100 µM (inactive)"}, {"measurement": "GI50", "setting": "[2]", "result": "> 100 µM (inactive)"}, {"measurement": "GI50", "setting": "[3]", "result": "> 100 µM (inactive)"}, {"measurement": "GI50", "setting": "[4]", "result": "> 100 µM (inactive)"}, {"measurement": "GI50", "setting": "[5]", "result": "> 100 µM (inactive)"}, {"measurement": "GI50", "setting": "[7]", "result": "> 100 µM (inactive)"}, {"measurement": "GI50", "setting": "[8]", "result": "> 100 µM (inactive)"}, {"measurement": "GI50", "setting": "[9]", "result": "> 100 µM (inactive)"}, {"measurement": "GI50", "setting": "[11]", "result": "> 100 µM (inactive)"}, {"measurement": "GI50", "setting": "[12]", "result": "> 100 µM (inactive)"}, {"measurement": "GI50", "setting": "[13]", "result": "> 100 µM (inactive)"}, {"measurement": "GI50", "setting": "[14]", "result": "> 100 µM (inactive)"}, {"measurement": "GI50", "setting": "[17]", "result": "> 100 µM (inactive)"}, {"measurement": "GI50", "setting": "[15]", "result": "> 100 µM (inactive)"}, {"measurement": "GI50", "setting": "[16]", "result": "> 100 µM (inactive)"}]}
